We go through 14 molecules from US9540352B2, “Substituted 1,7-naphthyridines as dopamine D1 ligands” (PFIZER INC., priority 2014, dated 2017).

By Ki is commonly meant a dissociation constant, usually derived from enzyme kinetics or from competition with a known ligand.

Human D1 Receptor, sequence (P21728 whole entry): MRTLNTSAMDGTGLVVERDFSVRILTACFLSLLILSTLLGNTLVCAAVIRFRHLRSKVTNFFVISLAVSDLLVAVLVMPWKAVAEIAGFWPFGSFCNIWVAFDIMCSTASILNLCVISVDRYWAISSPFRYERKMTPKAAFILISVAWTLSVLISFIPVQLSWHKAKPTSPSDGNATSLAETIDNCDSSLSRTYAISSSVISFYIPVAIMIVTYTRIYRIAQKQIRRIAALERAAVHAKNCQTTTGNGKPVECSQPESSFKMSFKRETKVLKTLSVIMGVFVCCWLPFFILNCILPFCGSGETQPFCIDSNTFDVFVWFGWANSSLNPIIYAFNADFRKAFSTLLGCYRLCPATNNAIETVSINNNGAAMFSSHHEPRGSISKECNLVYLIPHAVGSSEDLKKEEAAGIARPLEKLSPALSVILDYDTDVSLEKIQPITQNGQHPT

The test has as its target Human D1 Receptor (Homo sapiens (Human), UniProt P21728). The test can be described thus: Human D1 receptor binding assay ([3H]-SCH23390 competition). To be noted: over-expressing LTK human cell lines; 0.5 nM [3H]-SCH23390; 30 min at 37 °C; footnote a: geometric mean of ≥5 determinations; footnote b: single determination; read-out: Human D1 Receptor Binding, Ki (nM); Geometric mean of 2-4 determinations (unless otherwise indicated). As to the method: The affinity of the compounds described herein was determined by competition binding assays similar to those described in Ryman-Rasmussen et al., “Differential activation of adenylate cyclase and receptor internalization by novel dopamine D1 receptor agonists”, Molecular Pharmacology 68(4):1039-1048 (2005).
D1 binding assays were performed using over-expressing LTK human cell lines. […] These ligand and tissue concentrations were used in time course studies to determine linearity and equilibrium conditions for binding. Binding was at equilibrium with the specified amount of tissue in 30 minutes at 37° C. […] The pellet was resuspended in assay buffer [50 mM Tris (pH 7.4@ RT) containing 4 mM MgSO4 and 0.5 mM EDTA]. […] Non-specific binding was determined by radioligand binding in the presence of a saturating concentration of (+)-Butaclamol (10 μM), a D1 antagonist. After a 30 minute incubation period at 37° C., assay samples were rapidly filtered through Unifilter-96 GF/B PEI-coated filter plates and rinsed with 50 mM Tris buffer (pH 7.4 at 4° C.). […] The IC50 value (concentration at which 50% inhibition of specific binding occurs) was calculated by linear regression of the concentration-response data in Microsoft Excel. Ki values were calculated according to the Cheng-Prusoff equation: […]
Consider `Cc1cc(Oc2nccc3cccc(C#N)c23)ccc1-c1c(C)n[nH]c(=O)c1C` [Example 14, 1-[4-(3,5-dimethyl-6-oxo-1,6-dihydropyridazin-4-yl)-3-methylphenoxy]isoquinoline-8-carbonitrile], for which the Ki stood at 261 nM.

For the molecule `Cc1n[nH]c(=O)c(C)c1-c1ccc(Oc2nccc3cccnc23)cc1` [Example 4, 4,6-Dimethyl-5-[4-(1,7-naphthyridin-8-yloxy)phenyl]pyridazin-3(2H)-one], the inhibitory constant (Ki) was 205 nM.

Consider `Cc1cc(Oc2nccc3ccncc23)ccc1-c1c(C)n[nH]c(=O)c1C` [Example 8, 4,6-dimethyl-5-[2-methyl-4-(2,7-naphthyridin-1-yloxy)phenyl]pyridazin-3(2H)-one], for which the Ki came out at 141 nM.

On to `Cc1cc(Oc2nccc3ccccc23)ccc1-c1c(C)n[nH]c(=O)c1C` [Example 11, 5-[4-(isoquinolin-1-yloxy)-2-methylphenyl]-4,6-dimethylpyridazin-3(2H)-one], for which the Ki was 7.8 nM.

As to `Cc1cc(Oc2nccc3nccnc23)ccc1-c1c(C)n[nH]c(=O)c1C` [Example 9, 4,6-dimethyl-5-[2-methyl-4-(pyrido[3,4-b]pyrazin-5-yloxy)phenyl]pyridazin-3(2H)-one], the Ki is 306 nM.

Consider `Cc1cc(Oc2nccc3ccc(C#N)cc23)ccc1-c1c(C)n[nH]c(=O)c1C` [Example 13, 1-[4-(3,5-dimethyl-6-oxo-1,6-dihydropyridazin-4-yl)-3-methylphenoxy]isoquinoline-7-carbonitrile], for which the Ki amounted to 334 nM.

As for `Cc1cc(Oc2nccc3cccnc23)ccc1-c1c(C)ncnc1C` [Example 6, 8-[4-(4,6-dimethylpyrimidin-5-yl)-3-methylphenoxy]-1,7-naphthyridine], the Ki turned out to be 105 nM.

Consider `Cc1cc(Oc2nccc3ncccc23)ccc1-c1c(C)n[nH]c(=O)c1C` [Example 10, 4,6-dimethyl-5-[2-methyl-4-(1,6-naphthyridin-5-yloxy)phenyl]pyridazin-3(2H)-one], for which the inhibitory constant (Ki) worked out at 124 nM.

Turning to `Cc1c(-c2ccc(Oc3nccc4cccnc34)cc2)n(C)c(=O)[nH]c1=O` [Example 7, 1,5-dimethyl-6-[4-(1,7-naphthyridin-8-yloxy)phenyl]pyrimidine-2,4(1H,3H)-dione], the Ki was found to be 119 nM.

Regarding `Cc1cc(Oc2nccc3ccccc23)ccc1-c1c(C)c(=O)[nH]c(=O)n1C` [Example 5, 6-[4-(Isoquinolin-1-yloxy)-2-methylphenyl]-1,5-dimethylpyrimidine-2,4(1H,3H)-dione], the Ki is 1.9 nM.

Consider `Cc1cc(Oc2nccc3cccnc23)ccc1-c1c(C)n[nH]c(=O)c1C` (single isomer, unassigned) [Example 3, (−)-4,6-Dimethyl-5-[2-methyl-4-(1,7-naphthyridin-8-yloxy)phenyl]pyridazin-3(2H)-one], for which the Ki is 102 nM.

For the molecule `Cc1cc(Oc2nccc3cccnc23)ccc1-c1c(C)c(=O)[nH]c(=O)n1C` [Example 1, 1,5-Dimethyl-6-[2-methyl-4-(1,7-naphthyridin-8-yloxy)phenyl]pyrimidine-2,4(1H,3H)-dione], the Ki was found to be 28.5 nM.

Turning to `COc1ccc2ccnc(Oc3ccc(-c4c(C)n[nH]c(=O)c4C)c(C)c3)c2c1` [Example 12, 5-{4-[(7-methoxyisoquinolin-1-yl)oxy]-2-methylphenyl}-4,6-dimethylpyridazin-3(2H)-one], the Ki was found to be 186 nM.

As for `Cc1cc(Oc2nccc3cccnc23)ccc1-c1c(C)n[nH]c(=O)c1C` (single isomer, unassigned) [Example 2, (+)-4,6-Dimethyl-5-[2-methyl-4-(1,7-naphthyridin-8-yloxy)phenyl]pyridazin-3(2H)-one], the Ki stood at 115 nM.
